{"source": "patent US20140295425A1", "about": "“Diagnosis for Alzheimer's Disease” (The University of Birmingham, priority 2011, published 2014)", "test_system": "lymphocytes", "assay": "Two-colour microarray gene expression analysis of lymphocytes treated with rapamycin vs untreated", "format": "cell-based, human", "conditions": "rapamycin 100 ng/ml, 24 h", "experimental": "Two-colour microarray based gene expression analysis (Agilent Technologies) was used to identify genes that were differentially expressed in lymphocytes treated with rapamycin compared to lymphocytes that were left untreated. The microarray used was the Agilent Whole Human Genome Microarray: 4×44K.\nTwo parallel lymphocyte cultures were set up in RPMI medium supplemented with 10% FCS at a concentration of 1×10^6 cells per 1 ml of culture media. Phytohaemaglutinin (PHA) was added to the cultures at a final concentration of 22 μg/ml to activate the lymphocytes. Cultures were incubated for 48 hours at 37° C. in a humidified atmosphere containing 5% CO2. After 48 hours culture, one culture was treated with 100 ng/ml rapamycin, while the other untreated culture was kept as a control. After a further 24 hours, the cells of each lymphocyte culture were harvested by centrifugation.\nRNA was extracted from the lymphocyte pellets using TRI Reagent® in accordance with standard protocol. To ensure that there was no DNA contamination, the RNA was treated with DNase (Qiagen) according to the manufacturer's standard protocol. RNA quality was determined by RNA nano-chip analysis using an Agilent 2100 Bioanalyser, also according to standard protocol. The RNA quality of the samples ranged from 8-10 RNA Integrity Number (RIN), indicative of good quality RNA suitable for gene expression microarray.\n200 ng of RNA was converted to cDNA with the low-input quick amplification labelling kit (Agilent, 5190-2305). Spike Mix A and B were prepared separately. For each, the spike mix was thawed and vortexed, incubated at 37° C. for 5 minutes, and diluted in the provided dilution buffer (see Table 3 for dilution protocol). 2 μl of diluted spike mix A and spike mix B were added to 200 ng of RNA in a 1.5 μl volume from the rapamycin-treated and untreated lymphocytes respectively. […] The samples were incubated at 65° C. for 10 minutes, and placed on ice for 5 minutes. 4.7 μl of the cDNA master mix was added per sample, and samples incubated at 40° C. for 2 hours; 70° C. for 15 minutes; and placed on ice for 5 minutes.\nThe low-input quick amplification labelling kit (Agilent, 5190-2305) was used to convert the cDNA to labelled cRNA. Spike Mix A samples were added to transcription master mix prepared with Cyanine 3-CTP (green), whereas Spike Mix B samples were added to transcription master mix prepared with Cyanine 5-CTP (red). 6 μl of the transcription master mix was added per 10 μl cDNA sample, and incubated at 40° C. for 2 hours.\nThe cRNA was purified by standard RNeasy mini column protocol (Qiagen). The cRNA was quantified with a nanodrop spectrophotometer on the Microarray setting. The yield and specific activity of the cRNA samples were calculated as follows: […]\n825 ng of labelled cRNA was added to various fragmentation components as described in Table 7, incubated at 60° C. for 30 minutes, and cooled on ice for 1 minute. 55 μl of GEx Hybridisation buffer HI-RPM was subsequently added to stop fragmentation. The samples were mixed, centrifuged at 13,000 rotations per minute (RPM) for 1 minute, and placed on ice in preparation for microarray assembly. The microarray of choice was the 4×44K Agilent Whole Human Genome Microarray. A clean gasket slide was placed into the chamber base, 100 μl of sample dispensed per well, and array placed onto the gasket slide to facilitate hybridisation. The gasket and microarray slides were clamped together and incubated at 65° C. for 17 hours.\nFollowing hybridisation, the microarrays were washed in various wash solutions as described in Table 8. To summarise, the microarrays were removed from the hybridisation assembly and carefully separated from the gasket slide whilst fully submersed in wash buffer 1. Slides were washed for 1 minute, transferred to wash buffer 2 at 37° C. for 1 minute, and washed in acetonitrile for 10 seconds. The final wash was in stabilisation and drying solution for 30 seconds. […]"}
{"smiles": "CO[C@H]1C[C@@H]2CC[C@@H](C)[C@@](O)(O2)C(=O)C(=O)N2CCCC[C@H]2C(=O)O[C@H]([C@H](C)C[C@@H]2CC[C@@H](O)[C@H](OC)C2)CC(=O)[C@H](C)/C=C(\\C)[C@@H](O)[C@@H](OC)C(=O)[C@H](C)C[C@H](C)/C=C/C=C/C=C/1C", "note": "[rapamycin]", "values": [{"measurement": "Fold change", "setting": "gene ACPP (up-regulated)", "value": 1.769}, {"measurement": "Fold change", "setting": "gene ACSL6 (down-regulated)", "value": "−1.795"}, {"measurement": "Fold change", "setting": "gene ACSS1 (up-regulated)", "value": 1.212}, {"measurement": "Fold change", "setting": "gene ADAMTS15 (up-regulated)", "value": 1.095}, {"measurement": "Fold change", "setting": "gene ADAMTS16 (down-regulated)", "value": "−1.497"}, {"measurement": "Fold change", "setting": "gene ADH6 (up-regulated)", "value": 1.177}, {"measurement": "Fold change", "setting": "gene ADSSL1 (up-regulated)", "value": 0.8544}, {"measurement": "Fold change", "setting": "gene ALDH1A3 (up-regulated)", "value": 1.792}, {"measurement": "Fold change", "setting": "gene AMY1C, symbol AMY1A (includes others) (up-regulated)", "value": 0.8998}, {"measurement": "Fold change", "setting": "gene AP1S1 (down-regulated)", "value": "−1.488"}, {"measurement": "Fold change", "setting": "gene B3GALT4 (up-regulated)", "value": 1.175}, {"measurement": "Fold change", "setting": "gene B4GALT6 (up-regulated)", "value": 1.07}, {"measurement": "Fold change", "setting": "gene BMP7 (up-regulated)", "value": 1.123}, {"measurement": "Fold change", "setting": "gene CA6 (up-regulated)", "value": 1.029}, {"measurement": "Fold change", "setting": "gene CCL1 (up-regulated)", "value": 1.135}, {"measurement": "Fold change", "setting": "gene CCL2 (down-regulated)", "value": "−2.661"}, {"measurement": "Fold change", "setting": "gene CCL8 (down-regulated)", "value": "−2.62"}, {"measurement": "Fold change", "setting": "gene CCL26 (up-regulated)", "value": 1.662}, {"measurement": "Fold change", "setting": "gene COL8A2 (down-regulated)", "value": "−1.411"}, {"measurement": "Fold change", "setting": "gene CROT (down-regulated)", "value": "−2.4978"}, {"measurement": "Fold change", "setting": "gene CTSF (up-regulated)", "value": 1.61}, {"measurement": "Fold change", "setting": "gene CYP3A5 (up-regulated)", "value": 1.214}, {"measurement": "Fold change", "setting": "gene CYP4F3 (up-regulated)", "value": 1.395}, {"measurement": "Fold change", "setting": "gene CYP4V2 (up-regulated)", "value": 0.8253}, {"measurement": "Fold change", "setting": "gene CYP4X1 (up-regulated)", "value": 1.062}, {"measurement": "Fold change", "setting": "gene DCLK1 (up-regulated)", "value": 1.437}, {"measurement": "Fold change", "setting": "gene DHRS3 (up-regulated)", "value": 0.8206}, {"measurement": "Fold change", "setting": "gene DTD1 (up-regulated)", "value": 1.511}, {"measurement": "Fold change", "setting": "gene DUSP13 (up-regulated)", "value": 1.045}, {"measurement": "Fold change", "setting": "gene DYNC2LI1 (down-regulated)", "value": "−1.902"}, {"measurement": "Fold change", "setting": "gene DZIP3 (up-regulated)", "value": 0.8533}, {"measurement": "Fold change", "setting": "gene EGLN3 (down-regulated)", "value": "−1.959"}, {"measurement": "Fold change", "setting": "gene F9 (up-regulated)", "value": 1.605}, {"measurement": "Fold change", "setting": "gene FGF2 (down-regulated)", "value": "−2.241"}, {"measurement": "Fold change", "setting": "gene FGF18 (down-regulated)", "value": "−1.255"}, {"measurement": "Fold change", "setting": "gene FJX1 (down-regulated)", "value": "−2.328"}, {"measurement": "Fold change", "setting": "gene FUT9 (down-regulated)", "value": "−1.648"}, {"measurement": "Fold change", "setting": "gene GBP3 (up-regulated)", "value": 0.8462}, {"measurement": "Fold change", "setting": "gene GDA (up-regulated)", "value": 1.596}, {"measurement": "Fold change", "setting": "gene GNAL (up-regulated)", "value": 0.996}, {"measurement": "Fold change", "setting": "gene GPAM (down-regulated)", "value": "−1.231"}, {"measurement": "Fold change", "setting": "gene GPX6 (up-regulated)", "value": 1.702}, {"measurement": "Fold change", "setting": "gene HCK (down-regulated)", "value": "−1.403"}, {"measurement": "Fold change", "setting": "gene HSD17B13 (up-regulated)", "value": 1.51}, {"measurement": "Fold change", "setting": "gene IGBP1 (up-regulated)", "value": 0.8038}, {"measurement": "Fold change", "setting": "gene IGF2 (up-regulated)", "value": 1.185}, {"measurement": "Fold change", "setting": "gene IL1B (up-regulated)", "value": 1.136}, {"measurement": "Fold change", "setting": "gene IL1RN (up-regulated)", "value": 1.004}, {"measurement": "Fold change", "setting": "gene IL2 (down-regulated)", "value": "−1.407"}, {"measurement": "Fold change", "setting": "gene IL3 (down-regulated)", "value": "−2.123"}, {"measurement": "Fold change", "setting": "gene IL6 (down-regulated)", "value": "−1.3333"}, {"measurement": "Fold change", "setting": "gene IL10 (down-regulated)", "value": "−2.727"}, {"measurement": "Fold change", "setting": "gene INPP5E (down-regulated)", "value": "−1.4981"}, {"measurement": "Fold change", "setting": "gene INPP5K (up-regulated)", "value": 0.7753}, {"measurement": "Fold change", "setting": "gene JAK1 (up-regulated)", "value": 0.8726}, {"measurement": "Fold change", "setting": "gene LEFTY1 (up-regulated)", "value": 1.067}, {"measurement": "Fold change", "setting": "gene LEP (up-regulated)", "value": 1.281}, {"measurement": "Fold change", "setting": "gene LIPF (up-regulated)", "value": 1.349}, {"measurement": "Fold change", "setting": "gene LOXL3 (down-regulated)", "value": "−1.3654"}, {"measurement": "Fold change", "setting": "gene MMP9 (up-regulated)", "value": 1.152}, {"measurement": "Fold change", "setting": "gene MOXD1 (down-regulated)", "value": "−2.421"}, {"measurement": "Fold change", "setting": "gene MPP4 (up-regulated)", "value": 0.8611}, {"measurement": "Fold change", "setting": "gene MTHFR (up-regulated)", "value": 0.8153}, {"measurement": "Fold change", "setting": "gene OGN (up-regulated)", "value": 1.567}, {"measurement": "Fold change", "setting": "gene PAOX (up-regulated)", "value": 0.8572}, {"measurement": "Fold change", "setting": "gene PDE1A (up-regulated)", "value": 1.31}, {"measurement": "Fold change", "setting": "gene PDE4C (up-regulated)", "value": 1.017}, {"measurement": "Fold change", "setting": "gene PDK4 (up-regulated)", "value": 0.8187}, {"measurement": "Fold change", "setting": "gene PIM1 (up-regulated)", "value": 1.101}, {"measurement": "Fold change", "setting": "gene PITPNM2 (up-regulated)", "value": 0.8702}, {"measurement": "Fold change", "setting": "gene PLAT (up-regulated)", "value": 0.8897}, {"measurement": "Fold change", "setting": "gene PLB1 (up-regulated)", "value": 1.566}, {"measurement": "Fold change", "setting": "gene PLD1 (up-regulated)", "value": 0.9334}, {"measurement": "Fold change", "setting": "gene PLGLB1, symbol PLGLB1/PLGLB2 (up-regulated)", "value": 0.9441}, {"measurement": "Fold change", "setting": "gene PON3 (up-regulated)", "value": 1.013}, {"measurement": "Fold change", "setting": "gene PRKG1 (down-regulated)", "value": "−1.116"}, {"measurement": "Fold change", "setting": "gene PRODH2 (up-regulated)", "value": 1.716}, {"measurement": "Fold change", "setting": "gene PRSS23 (up-regulated)", "value": 1.012}, {"measurement": "Fold change", "setting": "gene PTGS2 (down-regulated)", "value": "−1.2871"}, {"measurement": "Fold change", "setting": "gene PYCR1 (down-regulated)", "value": "−1.294"}, {"measurement": "Fold change", "setting": "gene RAB37 (up-regulated)", "value": 0.9052}, {"measurement": "Fold change", "setting": "gene RAB39 (up-regulated)", "value": 0.8095}, {"measurement": "Fold change", "setting": "gene RND3 (up-regulated)", "value": 0.9124}, {"measurement": "Fold change", "setting": "gene RPS6KB1 (up-regulated)", "value": 1.481}, {"measurement": "Fold change", "setting": "gene RRAD (down-regulated)", "value": "−1.632"}, {"measurement": "Fold change", "setting": "gene SGTA (down-regulated)", "value": "−1.403"}, {"measurement": "Fold change", "setting": "gene SPP1 (up-regulated)", "value": 1.471}, {"measurement": "Fold change", "setting": "gene SPRED2 (up-regulated)", "value": 0.825}, {"measurement": "Fold change", "setting": "gene ST3GAL6 (up-regulated)", "value": 1.175}, {"measurement": "Fold change", "setting": "gene ST6GALNAC2 (down-regulated)", "value": "−1.242"}, {"measurement": "Fold change", "setting": "gene STK31 (up-regulated)", "value": 1.092}, {"measurement": "Fold change", "setting": "gene STS (up-regulated)", "value": 0.8677}, {"measurement": "Fold change", "setting": "gene TAC1 (down-regulated)", "value": "−1.262"}, {"measurement": "Fold change", "setting": "gene TDH (up-regulated)", "value": 1.414}, {"measurement": "Fold change", "setting": "gene THBS1 (down-regulated)", "value": "−1.359"}, {"measurement": "Fold change", "setting": "gene TRIB1 (up-regulated)", "value": 1.07}, {"measurement": "Fold change", "setting": "gene UBE2M (down-regulated)", "value": "−1.504"}, {"measurement": "Fold change", "setting": "gene ULK2 (up-regulated)", "value": 1.069}, {"measurement": "Fold change", "setting": "gene WWP2 (up-regulated)", "value": 0.9105}, {"measurement": "Fold change", "setting": "gene ZADH2 (up-regulated)", "value": 1.005}]}
